Assay results as given in US8119663B2, “Heteroaryl-substituted piperidines” (Bayer Pharma Aktiengesellschaft, priority 2007, dated 2012).

Assays:
[1] = system: platelet-rich plasma (platelet aggregation triggered by thrombin receptor agonist TRAP6, SFLLRN); assay: Platelet aggregation in plasma (TRAP6/SFLLRN-induced, Born turbidimetry); type: cell-based; settings: Homo sapiens; platelet-rich plasma of healthy volunteers; 10 min incubation at 37° C.; light transmission 5 minutes after agonist; concentration at which aggregation is 50% inhibited
Description: 1.c) Platelet Aggregation in Plasma
To determine the platelet aggregation, blood of healthy volunteers of both sexes who had not received any thrombocyte aggregation-influencing medication for the last ten days is used. The blood is drawn into monovettes (Sarstedt, Nümbrecht, Germany) which contain, as anticoagulant, sodium citrate 3.8% (1 part of citrate+9 parts of blood). To obtain platelet-rich plasma, the citrated whole blood is centrifuged at 140 g for 20 min.
For the aggregation measurements, aliquots of the platelet-rich plasma are incubated with increasing concentrations of test substance at 37° C. for 10 min. Aggregation is then triggered by addition of a thrombin receptor agonist (TRAP6, SFLLRN) in an aggregometer and determined at 37° C. using the turbidimetric method according Born (Born, G. V. R., Cross M. J., The Aggregation of Blood Platelets; J. Physiol. 1963, 168, 178-195). The SFLLRN concentration giving maximum aggregation is individually determined for each donor.
To calculate the inhibitory effect, the increase of light transmission (amplitude of the aggregation curve in %) is determined 5 minutes after addition of the agonist in the presence and absence of test substance, and the inhibition is calculated. The concentration at which the aggregation is 50% inhibited is calculated from the inhibition curves.

[2] = biological target: T1, human protease activated receptor 1 (PAR1) (Homo sapiens, UniProt P25116); assay: Cellular functional in vitro test (aequorin luminescence, PAR1 test cell); type: cell-based; settings: recombinant HEK293-derived cell line expressing aequorin; PAR1 agonist added at its EC50 5 minutes after test substance
T1 construct: the cell stably expresses the endogenous human PAR1 receptor and the endogenous purinergic receptor P2Y2; endogenous in cells; host or cells: HEK293-derived recombinant cell line constitutively expressing mitochondrial aequorin
T1 sequence (P25116 22-425): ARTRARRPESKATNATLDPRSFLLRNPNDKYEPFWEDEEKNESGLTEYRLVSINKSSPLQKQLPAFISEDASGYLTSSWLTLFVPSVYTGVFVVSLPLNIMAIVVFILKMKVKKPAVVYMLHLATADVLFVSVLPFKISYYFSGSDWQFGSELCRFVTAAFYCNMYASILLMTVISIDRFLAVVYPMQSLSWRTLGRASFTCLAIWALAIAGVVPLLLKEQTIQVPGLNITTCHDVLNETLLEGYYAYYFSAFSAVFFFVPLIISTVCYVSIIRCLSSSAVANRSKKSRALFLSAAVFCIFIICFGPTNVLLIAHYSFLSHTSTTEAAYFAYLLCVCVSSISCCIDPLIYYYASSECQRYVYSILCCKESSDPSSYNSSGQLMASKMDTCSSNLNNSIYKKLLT
Excerpt: 1.a) Cellular Functional In vitro Test
A recombinant cell line is used to identify […] of the human protease activated receptor 1 (PAR1) and to quantify the activity of the substances described herein. The cell is originally derived from a human embryonal kidney cell (HEK293; ATCC: American Type Culture Collection, Manassas, Va. 20108, USA). The test cell line constitutively expresses a modified form of the calcium-sensitive photoprotein aequorin which, after reconstitution with the cofactor coelenterazine, emits light when the free calcium concentration in the inner mitochondrial compartment is increased (Rizzuto R, Simpson A W, Brini M, Pozzan T.; Nature 1992, 358, 325-327). Additionally, the cell stably expresses the endogenous human PAR1 receptor and the endogenous purinergic receptor P2Y2. The resulting PAR1 test cell responds to stimulation of the endogenous PAR1 or P2Y2 receptor with an intracellular release of calcium ions, which can be quantified through resulting aequorin luminescence with a suitable luminometer (Milligan G, Marshall F, Rees S, Trends in Pharmacological Sciences 1996, 17, 235-237).
For testing the substance specificity, its effect after activation of the endogenous PAR1 receptor is compared to the effect after activation of the endogenous purinergic P2Y2 receptor which utilizes the same intracellular signal path.
Test procedure: The cells are plated out two days (48 hours) before the test in culture medium (DMEM F12, supplemented with 10% FCS, 2 mM glutamine, 20 mM HEPES, 1.4 mM pyruvate, 0.1 mg/ml gentamycin, 0.15% Na bicarbonate; BioWhittaker Cat.# BE04-687Q; B-4800 Verviers, Belgium) in 384-well microtitre plates and kept in a cell incubator (96% atmospheric humidity, 5% V/V CO2, 37° C.). On the day of the test, the culture medium is replaced by a tyrode solution (in mM: 140NaCl, 5l KCl, 1MgCl2, 2CaCl2, 20 glucose, 20 HEPES), which additionally contains the cofactor coelenterazine (25 μM) and glutathione (4 mM), and the microtitre plate is then incubated for a further 3-4 hours. The test substances are then pipetted onto the microtitre plate, and 5 minutes after the transfer of the test substances into the wells of the microtitre plate the plate is transferred into the luminometer, a PAR1 agonist concentration which corresponds to the EC50 is added and the resulting light signal is immediately measured in the luminometer. To distinguish an antagonist substance action from a toxic action, the endogenous purinergic receptor is immediately subsequently activated with agonist (ATP, final concentration 10 μM) and the resulting light signal is measured.

| SMILES | IC50 [2] [nM] | IC50 [1] [nM] |
| --- | --- | --- |
| O=C(N1CCOCC1)N1CC(c2ccc(OC(F)(F)F)cc2)CC(c2nc(-c3ccc(F)cc3F)no2)C1 (racemic) [Example 38, 4-({3-[3-(2,4-Difluorophenyl)-1,2,4-oxadiazol-5-yl]-5-[4-(trifluoromethoxy)phenyl]piperidin-1-yl}carbonyl)morpholine] | 31 | 93000 |
| CCc1ccc(C2CC(c3nc(Cc4ccccc4Cl)no3)CN(C(=O)N3CCOCC3)C2)cc1 (racemic) [Example 60, 4-({3-[3-(2-Chlorobenzyl)-1,2,4-oxadiazol-5-yl]-5-(4-ethylphenyl)piperidin-1-yl}carbonyl)-morpholine] | 10 | 19600 |
| Cc1noc(C2CC(c3ccc(OC(F)(F)F)cc3)CN(C(=O)N3CCC(O)CC3)C2)n1 (single isomer, unassigned) [Example 454, (4-Hydroxypiperidin-1-yl){3-(3-methyl-1,2,4-oxadiazol-5-yl)-5-[4-(trifluoromethoxy)phenyl]piperidin-1-yl}methanone] | 47.5 |  |
| COCCc1noc(C2CC(c3ccc(C)c(C(F)(F)F)c3)CN(C(=O)N3CCOCC3)C2)n1 (single isomer, unassigned) [Example 459, {3-[3-(2-Methoxyethyl)-1,2,4-oxadiazol-5-yl]-5-[4-methyl-3-(trifluoromethyl)phenyl]piperidin-1-yl}(morpholin-4-yl)methanone] | 84.2 |  |
| CCc1ccc(C2CC(c3nc(CCOC)no3)CN(C(=O)N3CCC(O)CC3)C2)cc1 (single isomer, unassigned) [Example 549, {3-(4-Ethylphenyl)-5-[3-(2-methoxyethyl)-1,2,4-oxadiazol-5-yl]piperidin-1-yl}(4-hydroxy-piperidin-1-yl)methanone] | 12.5 |  |
| COCCc1noc(C2CC(c3ccc(OC(F)(F)F)cc3)CN(C(=O)N3CCC(O)C3)C2)n1 (centres unmarked) [Example 420, (3-Hydroxypyrrolidin-1-yl) {3-[3-(2-methoxyethyl)-1,2,4-oxadiazol-5-yl]-5-[4-(trifluoromethoxy)-phenyl]piperidin-1-yl}methanone] | 23.8 |  |
| COCc1nc(C2CC(c3ccc(C(F)(F)F)cc3)CN(C(=O)N3CCOCC3)C2)no1 (centres unmarked) [Example 465, {3-[5-(Methoxymethyl)-1,2,4-oxadiazol-3-yl]-5-[4-(trifluoromethyl)phenyl]piperidin-1-yl}-(morpholin-4-yl)methanone] | 24.4 |  |

The next compounds have a lower IC50 [2] than those just listed; values first:

| IC50 [2] [nM] | SMILES | IC50 [1] [nM] |
| --- | --- | --- |
| 9.39 | O=C(N1CCC(O)C1)N1CC(c2ccc(C(F)(F)F)cc2)CC(c2nc(C3CC3)no2)C1 (centres unmarked) [Example 146, {3-(3-Cyclopropyl-1,2,4-oxadiazol-5-yl)-5-[4-(trifluoromethyl)phenyl]piperidin-1-yl}(3-hydroxy-pyrrolidin-1-yl)methanone] |  |
| 6.8 | CCc1ccc(C2CC(c3nc(-c4c(F)cccc4F)no3)CN(C(=O)N3CCOCC3)C2)cc1 (racemic) [Example 39, 4-({3-[3-(2,6-Difluorophenyl)-1,2,4-oxadiazol-5-yl]-5-(4-ethylphenyl)piperidin-1-yl}carbonyl)-morpholine] | 5600 |
| 4.77 | O=C(N1CCOCC1)N1CC(c2cccc(C(F)(F)F)c2)CC(c2nc(-c3c(F)cccc3F)no2)C1 (centres unmarked) [Example 352] |  |
| 2.73 | O=C(N1CCOCC1)N1CC(c2cccc(C(F)(F)F)c2)CC(c2nc(-c3cc(F)ccc3F)no2)C1 (centres unmarked) [Example 356] |  |
